Measured values: paper PMC6973020, “Quinoline‐Conjugated Ruthenacarboranes: Toward Hybrid Drugs with a Dual Mode of Action” (Chemmedchem, 2019)

Assays:
Assay type in all cases: cell-based, human
[1] = system: MCF‐7 cells; assay: CV viability of MCF‐7 exposed to 3 together with autophagy inhibitors; conditions: MCF‐7, 3 together with CQ or 3‐MA (0.5 mM), 72 h, CV assay
Description: Colorimetric assays for cellular viability. […] Cells were then washed with tap water, dried in air, and the CV dye was dissolved in 33 % (w/v) acetic acid solution. […] The dye was then discarded, and the formed formazan (purple) was dissolved in DMSO. The absorbance was measured with an automated microplate reader at λmax 540 nm, with the reference λmax 670 nm. Untreated cells or cells treated only with BSA (control) were also measured, as reference for BSA‐free and BSA‐containing drug formulations, respectively. […] Cell viability is expressed as percentage (%) relative to control (untreated cultures).58 Experiments were run in three independent replicates. […] Non‐linear regression analyses of the obtained results was done using GraphPad Prism software to calculate IC50 values. page 17: Figure S15. […] MA, 0.5 mM) for 72 h, from CV assay. Data are expressed as indicated above for Figure S11. * indicates statistically significant (p < 0.05) values, with respect to the control, # with respect to cells treated with 3. S16 (1 picture or pasted object on this page, not shown here)

[2] = system: MCF‐7 cells; assay: Sideward Scatter (SSC, cell granularity), MCF‐7; conditions: MCF‐7, 20 μM of 4, 72 h
Description: (§1) Flow cytometry. For gaining better insights into the mechanisms of action of the ruthenium complexes, MCF‐7 and LN229 cells incubated with an IC50 dose of 3 or 4, were analyzed via flow cytometry. Several staining protocols were carried out in parallel, in independent experiments: i) AnnV/PI for the detection of apoptotic cell death, ii) AO for the detection of acidic vacuoles, iii) ApoStat for checking caspase activation, iv) CFSE for detecting interference with cellular proliferation, and v) DAPI for the detection of morphological signs of apoptosis. Untreated cells or cells treated only with BSA (control) were also measured, as reference for BSA‐free and BSA‐containing drug formulations, respectively. […] Channels FL1 (green emission), FL2 (orange emission) and/or FL3 (dark red emission) were used for fluorescence detection, according to the specific staining agent. Sideward Scatter (SSC) for MCF‐7 cells treated with 4 or BSA−4 was also analyzed, with respect to the control, for detection of shifts of cell granularity. […]
Figure S16. […] Respective controls, i.e. untreated cells or cells treated only with BSA, were also measured for comparison. […]
Figure S17. […] Respective controls, i.e. untreated cells or cells treated only with BSA, were also measured for comparison.
Sideward Scatter is proportional to cell granularity and was determined via flow cytometry. […]

[3] = system: LN229 cells; assay: AO staining (acidic vesicles), LN229; conditions: LN229, IC50 dose, 72 h, compared with cells treated with an IC50 dose of 3
Description: as §1
Staining Protocols for Flow Cytometric Analysis. […] Finally, cells were washed in PBS, resuspended in PBS (or AnnV‐binding buffer for AnnV/PI), and analysed. […] Cells were then washed, trypsinised, dissolved in PBS and analysed by CyFlow® Space Partec using the PartecFloMax® software (Partec GmbH, Münster, Germany). […]

Substance: closo‐ [Compound 3, closo‐ [3‐(η^6‐p‐Cymene)‐1‐(CH2COOH)‐3,1,2‐RuC2B9H10]]
- cell viability on co‐treatment with an inhibitor of autophagy [1]: restoration of cellular viability

Substance: closo ‐[3‐(η^6‐p‐Cymene)‐1‐(quinolin‐8‐yl‐acetate)‐3,1,2‐RuC2B9H10] [Compound 4]
- cell granularity (SSC) [2]: enhanced granularity
- number of acidic vesicles (AO staining) [3]: significantly lower
